Source: ChEMBL document CHEMBL3217456 (Medchemcomm, 2014)
The source made the active and inactive calls. No cut-off for these calls is given here.

Assays:
Histamine H2 receptor [1] = target: T1, Histamine H2 receptor (Homo sapiens, UniProt P25021); experiment: Antagonist activity at human recombinant histamine H2 receptor-Gsalphas fusion protein expressed in Sf9 cells assessed as inhibition of histamine-induced [35S]GTPgammaS binding after 90 mins by liquid scintillation counting; type: functional
Histamine H2 receptor [2] = target: T1, Histamine H2 receptor; experiment: Intrinsic activity at human recombinant histamine H2 receptor-Gsalphas fusion protein expressed in Sf9 cells assessed as [35S]GTPgammaS binding at 10 uM after 90 mins by liquid scintillation counting relative to histamine; type: functional
Histamine H4 receptor [3] = target: T2, Histamine H4 receptor (Homo sapiens, UniProt Q9H3N8); experiment: Agonist activity at human recombinant histamine H4 receptor-RGS19 fusion protein expressed in Sf9 cells coexpressing Galphai2,Gbeta1gamma2 assessed as [35S]GTPgammaS binding after 90 mins by liquid scintillation counting; type: functional
Histamine H3 receptor [4] = target: T3, Histamine H3 receptor (Homo sapiens, UniProt Q9Y5N1); experiment: Agonist activity at human recombinant histamine H3 receptor expressed in Sf9 cells coexpressing Galphai2,Gbeta1gamma2 and RGS4 assessed as [35S]GTPgammaS binding after 90 mins by liquid scintillation counting; type: functional
[5] = target: Histamine H1 receptor (Homo sapiens) (UniProt P35367); experiment: (§1) Antagonist activity at human recombinant histamine H1 receptor expressed in Sf9 cells coexpressing RGS4 assessed as inhibition of histamine-induced […] hydrolysis preincubated for 2 mins before [gamma32P]GTP addition measured after 20 mins by steady-state GTPase activity assay; type: functional
[6] = target: Histamine H1 receptor (Homo sapiens) (UniProt P35367); experiment: Intrinsic activity at human recombinant histamine H1 receptor expressed in Sf9 cells coexpressing RGS4 preincubated for 2 mins before [gamma32P]GTP addition measured after 20 mins by steady-state GTPase activity assay relative to histamine
Histamine H4 receptor [7] = target: T2, Histamine H4 receptor; experiment: as §1, with “H4 receptor-RGS19 fusion protein” for “H1 receptor”, “Galphai2,Gbeta1gamma2” for “RGS4”; type: functional
Histamine H3 receptor [8] = target: T3, Histamine H3 receptor; experiment: as §1, with “H3” for “H1”, “coexpressing Galphai2,Gbeta1gamma2 and” for “coexpressing”; type: functional
Histamine H2 receptor [9] = target: T1, Histamine H2 receptor; experiment: Antagonist activity at human recombinant histamine H2 receptor-Gsalphas fusion protein expressed in Sf9 cells assessed as inhibition of histamine-induced […] hydrolysis preincubated for 2 mins before [gamma32P]GTP addition measured after 20 mins by steady-state GTPase activity assay; type: functional
Histamine H4 receptor [10] = target: T2, Histamine H4 receptor; experiment: Intrinsic activity at human recombinant histamine H4 receptor-RGS19 fusion protein expressed in Sf9 cells coexpressing Galphai2,Gbeta1gamma2 preincubated for 2 mins before [gamma32P]GTP addition measured after 20 mins by steady-state GTPase activity assay relative to histamine
Histamine H3 receptor [11] = target: T3, Histamine H3 receptor; experiment: Intrinsic activity at human recombinant histamine H3 receptor expressed in Sf9 cells coexpressing Galphai2,Gbeta1gamma2 and RGS4 preincubated for 2 mins before [gamma32P]GTP addition measured after 20 mins by steady-state GTPase activity assay relative to histamine
Histamine H2 receptor [12] = target: T1, Histamine H2 receptor; experiment: Intrinsic activity at human recombinant histamine H2 receptor-Gsalphas fusion protein expressed in Sf9 cells preincubated for 2 mins before [gamma32P]GTP addition measured after 20 mins by steady-state GTPase activity assay relative to histamine
[13] = target: Histamine H1 receptor (Homo sapiens) (UniProt P35367); settings: Sf9
Histamine H4 receptor [14] = target: T2, Histamine H4 receptor; experiment: Antagonist activity at human recombinant histamine H4 receptor-RGS19 fusion protein expressed in Sf9 cells coexpressing Galphai2,Gbeta1gamma2 assessed as inhibition of histamine-induced [35S]GTPgammaS binding after 90 mins by liquid scintillation counting; type: functional
Histamine H3 receptor [15] = target: T3, Histamine H3 receptor; experiment: Antagonist activity at human recombinant histamine H3 receptor expressed in Sf9 cells coexpressing Galphai2,Gbeta1gamma2 and RGS4 assessed as inhibition of histamine-induced [35S]GTPgammaS binding after 90 mins by liquid scintillation counting; type: functional
Histamine H4 receptor [16] = target: T2, Histamine H4 receptor; experiment: Intrinsic activity at human recombinant histamine H4 receptor-RGS19 fusion protein expressed in Sf9 cells coexpressing Galphai2,Gbeta1gamma2 assessed as [35S]GTPgammaS binding at 10 uM after 90 mins by liquid scintillation counting relative to histamine; type: functional
Histamine H3 receptor [17] = target: T3, Histamine H3 receptor; experiment: Intrinsic activity at human recombinant histamine H3 receptor expressed in Sf9 cells coexpressing Galphai2,Gbeta1gamma2 and RGS4 assessed as [35S]GTPgammaS binding at 10 uM after 90 mins by liquid scintillation counting relative to histamine; type: functional
[18] = target: Histamine H2 receptor (Cavia porcellus) (UniProt P47747); experiment: Agonist activity at guinea pig histamine H2 receptor assessed as potentiation of histamine-induced response after 30 mins relative to histamine
Histamine H2 receptor (Cavia porcellus), sequence (P47747 whole entry): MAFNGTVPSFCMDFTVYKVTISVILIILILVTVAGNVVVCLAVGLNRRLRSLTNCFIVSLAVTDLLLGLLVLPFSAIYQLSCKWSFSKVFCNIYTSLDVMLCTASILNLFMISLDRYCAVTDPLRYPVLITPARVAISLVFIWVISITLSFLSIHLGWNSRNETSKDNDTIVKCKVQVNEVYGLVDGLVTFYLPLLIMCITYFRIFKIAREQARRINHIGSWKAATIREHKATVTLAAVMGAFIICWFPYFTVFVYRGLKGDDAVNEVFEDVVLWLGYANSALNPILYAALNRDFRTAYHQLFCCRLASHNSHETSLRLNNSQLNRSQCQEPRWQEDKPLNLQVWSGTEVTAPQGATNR

T1 sequence (P25021 whole entry, the tested form may be a part): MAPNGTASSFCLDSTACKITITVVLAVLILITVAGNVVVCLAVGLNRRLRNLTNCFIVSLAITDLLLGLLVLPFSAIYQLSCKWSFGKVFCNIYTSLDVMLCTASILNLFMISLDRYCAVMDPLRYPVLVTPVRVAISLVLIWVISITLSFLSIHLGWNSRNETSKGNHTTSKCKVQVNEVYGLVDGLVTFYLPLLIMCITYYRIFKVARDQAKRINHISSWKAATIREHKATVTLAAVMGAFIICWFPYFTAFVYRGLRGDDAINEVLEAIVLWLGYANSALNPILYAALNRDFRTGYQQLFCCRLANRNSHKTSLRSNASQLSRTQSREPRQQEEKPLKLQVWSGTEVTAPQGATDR
T3 sequence (Q9Y5N1 whole entry): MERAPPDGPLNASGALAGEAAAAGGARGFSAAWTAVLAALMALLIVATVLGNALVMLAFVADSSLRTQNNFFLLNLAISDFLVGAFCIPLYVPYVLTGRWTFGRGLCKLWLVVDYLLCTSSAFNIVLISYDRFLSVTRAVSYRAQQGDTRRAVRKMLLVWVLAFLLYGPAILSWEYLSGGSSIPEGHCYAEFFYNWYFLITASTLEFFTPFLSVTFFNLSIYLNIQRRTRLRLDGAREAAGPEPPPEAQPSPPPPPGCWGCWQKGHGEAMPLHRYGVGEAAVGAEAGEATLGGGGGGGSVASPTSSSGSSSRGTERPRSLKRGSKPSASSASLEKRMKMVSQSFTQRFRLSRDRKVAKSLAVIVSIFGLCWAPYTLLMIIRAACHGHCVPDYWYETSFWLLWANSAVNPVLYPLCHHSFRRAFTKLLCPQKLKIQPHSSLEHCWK
Histamine H1 receptor (Homo sapiens), sequence (P35367 whole entry, the tested form may be a part): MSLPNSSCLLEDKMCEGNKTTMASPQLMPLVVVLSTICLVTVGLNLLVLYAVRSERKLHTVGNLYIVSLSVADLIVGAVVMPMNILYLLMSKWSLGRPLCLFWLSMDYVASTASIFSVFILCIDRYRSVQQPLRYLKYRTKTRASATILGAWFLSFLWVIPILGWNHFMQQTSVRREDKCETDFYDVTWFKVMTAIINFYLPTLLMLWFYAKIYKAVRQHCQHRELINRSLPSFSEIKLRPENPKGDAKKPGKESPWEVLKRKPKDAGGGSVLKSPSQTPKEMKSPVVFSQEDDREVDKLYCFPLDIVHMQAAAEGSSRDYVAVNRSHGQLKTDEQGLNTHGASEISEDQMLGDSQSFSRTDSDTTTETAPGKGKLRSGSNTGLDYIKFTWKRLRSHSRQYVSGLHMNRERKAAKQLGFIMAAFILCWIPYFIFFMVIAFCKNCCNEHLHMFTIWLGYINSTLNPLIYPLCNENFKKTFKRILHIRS
T2 sequence (Q9H3N8 whole entry, the tested form may be a part): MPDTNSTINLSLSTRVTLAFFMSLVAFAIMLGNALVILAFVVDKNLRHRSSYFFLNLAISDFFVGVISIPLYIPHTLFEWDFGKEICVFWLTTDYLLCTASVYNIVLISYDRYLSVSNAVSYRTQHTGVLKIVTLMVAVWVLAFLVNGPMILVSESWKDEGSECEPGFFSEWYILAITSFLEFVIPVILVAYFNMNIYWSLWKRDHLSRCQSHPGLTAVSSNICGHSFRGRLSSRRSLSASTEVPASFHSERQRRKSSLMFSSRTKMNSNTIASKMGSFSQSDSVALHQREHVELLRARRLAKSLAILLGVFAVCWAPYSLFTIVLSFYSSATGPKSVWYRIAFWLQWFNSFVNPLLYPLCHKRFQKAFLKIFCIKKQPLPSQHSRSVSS

SMILES	pKb (Histamine H2 receptor [1])	Intrinsic activity (Histamine H2 receptor [2])	pEC50 (Histamine H4 receptor [3])	pKb [5]	Intrinsic activity [6]	pKb (Histamine H4 receptor [7])	pKb (Histamine H3 receptor [8])	pKb (Histamine H2 receptor [9])	Intrinsic activity (Histamine H3 receptor [11])	Intrinsic activity (Histamine H2 receptor [12])	pKb (Histamine H3 receptor [15])	Intrinsic activity (Histamine H4 receptor [16])	Intrinsic activity (Histamine H3 receptor [17])	further results
N#C/N=C(\NCCCCc1cnn[nH]1)NCCSc1ccccc1	< 5	-0.04	inactive	< 5	-0.02	–	–	–	–	–	–	–	–	pEC50 (Histamine H3 receptor [4]): inactive
CN(C)Cc1ccc(CCCN/C(N)=N/C(=O)CC(c2ccccc2)c2ccccc2)o1	–	–	–	5.11	-0.02	< 5	5.89	7.03	-0.65	-0.16	–	–	–	Intrinsic activity (Histamine H4 receptor [10]): -0.16
N#C/N=C(/NCCCSc1nc(N)n[nH]1)NCCSc1ccccc1	< 5	-0.05	inactive	–	–	–	–	–	–	–	–	–	–	pEC50 (Histamine H3 receptor [4]): inactive; pEC50 [13]: inactive
N#C/N=C(\NCCNc1ccnc(N)n1)NCCSc1ccccc1	< 5	-0.07	–	< 5	-0.02	–	–	–	–	–	5.54	-0.83	-1.03	pKb (Histamine H4 receptor [14]): 5.43
CN/C(=N\CCSCc1nc[nH]c1C)NC#N	5.77	–	–	–	–	–	–	–	–	–	–	–	–	pKb (Histamine H4 receptor [14]): < 5
N/C(=N\C(=O)CC(c1ccccc1)c1ccccc1)NCCCc1cccnc1	–	–	–	5.04	0.06	< 5	< 5	6.14	-0.14	-0.16	–	–	–	–
N/C(=N\C(=O)CC(c1ccccc1)c1ccccc1)NCCCc1ccccn1	–	–	–	5.41	0.1	< 5	5.35	5.68	-0.44	0	–	–	–	–
Cc1nccn1CCCCCN/C(=N\C#N)NCCSc1ccccc1	< 5	-0.08	–	< 5	0.03	–	–	–	–	–	< 5	-0.05	-0.42	pKb (Histamine H4 receptor [14]): < 5
N#C/N=C(/NCCNc1nccc(N)n1)NCCSc1ccccc1	< 5	-0.08	inactive	< 5	0.01	–	–	–	–	–	< 5	–	-1.43	–
CN/C(=N/C#N)NCCCCc1c[nH]c(C)n1	< 5	0.04	–	< 5	0.01	–	–	–	–	–	< 5	-0.23	-0.13	pKb (Histamine H4 receptor [14]): < 5
N/C(=N\C(=O)CC(c1ccccc1)c1nccs1)NCCCc1ncc[nH]1 (centres undefined)	–	–	–	–	–	< 5	5.28	5.19	-0.46	0	–	–	–	–
N#C/N=C(\NCCCCc1nc(N)n[nH]1)NCCSc1ccccc1	< 5	0.03	inactive	< 5	0.01	–	–	–	–	–	–	–	–	pEC50 (Histamine H3 receptor [4]): inactive
N#C/N=C(/NCCCNc1nccc(N)n1)NCCSc1ccccc1	< 5	-0.11	–	< 5	0.01	–	–	–	–	–	5.14	-0.09	-0.71	pKb (Histamine H4 receptor [14]): < 5
CN/C(=N/C#N)NCCCCc1nc[nH]c1C	< 5	0.04	–	< 5	-0.03	–	–	–	–	–	–	0.6	0.23	EC50 (Histamine H4 receptor [3]): 3630 nM; EC50 (Histamine H3 receptor [4]): 1070 nM
CN/C(=N\C#N)NCCCSc1nc(N)n[nH]1	< 5	-0.02	inactive	–	–	–	–	–	–	–	–	–	–	pEC50 (Histamine H3 receptor [4]): inactive; pEC50 [13]: inactive
CN/C(=N/C#N)NCCCc1c[nH]c(C)n1	< 5	-0.02	–	inactive	inactive	–	–	–	–	–	< 5	0.74	-0.52	EC50 (Histamine H4 receptor [3]): 550 nM; pEC50 [13]: inactive
N#C/N=C(/NCCCCNc1ccccn1)NCCSc1ccccc1	< 5	-0.13	–	< 5	-0.01	–	–	–	–	–	< 5	-0.34	-0.36	pKb (Histamine H4 receptor [14]): < 5

SMILES	pKb (Histamine H2 receptor [1])	Intrinsic activity (Histamine H2 receptor [2])	pEC50 (Histamine H4 receptor [3])	pKb [5]	Intrinsic activity [6]	pKb (Histamine H4 receptor [7])	pKb (Histamine H3 receptor [8])	pKb (Histamine H2 receptor [9])	Intrinsic activity (Histamine H3 receptor [11])	Intrinsic activity (Histamine H2 receptor [12])	pKb (Histamine H3 receptor [15])	Intrinsic activity (Histamine H4 receptor [16])	Intrinsic activity (Histamine H3 receptor [17])	further results
CC(CC(=O)/N=C(\N)NCCCc1ccc(CN(C)C)o1)c1cccs1 (centres undefined)	–	–	–	–	–	< 5	5.77	6.51	-0.73	-0.12	–	–	–	Intrinsic activity (Histamine H4 receptor [10]): -0.14
N/C(=N\C(=O)CC(c1ccccc1)c1ccccc1)NCCCc1ccccc1	–	–	–	5.26	-0.01	< 5	5.1	5.89	-0.24	-0.12	–	–	–	–
CN(C)Cc1ccc(CCCN/C(N)=N/C(=O)CC(c2ccccc2)c2nccs2)o1 (centres undefined)	–	–	–	–	–	< 5	5.51	6.13	-0.62	-0.13	–	–	–	–
CC(CC(=O)/N=C(\N)NCCCc1c[nH]cn1)c1ccccc1 (centres undefined)	–	–	–	–	–	–	–	–	0.24	0.87	–	–	–	Efficacy [18]: 99%; Intrinsic activity (Histamine H4 receptor [10]): 0.84
S=C(NC1CCCCC1)N1CCC(c2cnc[nH]2)CC1	–	–	–	–	–	–	–	–	–	–	–	–	–	Intrinsic activity (Histamine H4 receptor [10]): -0.95
CN/C(=N/C#N)NCCCNc1nc(N)n[nH]1	< 5	-0.03	inactive	–	–	–	–	–	–	–	–	–	–	pEC50 (Histamine H3 receptor [4]): inactive; pEC50 [13]: inactive
N/C(=N\C(=O)CC(c1ccccc1)c1ccccc1)NCCCc1ccncc1	–	–	–	< 5	0.08	< 5	5.06	6.14	-0.08	-0.12	–	–	–	–
N#C/N=C(/NCCCNc1ccccn1)NCCSc1ccccc1	< 5	-0.12	–	< 5	0.02	–	–	–	–	–	< 5	-0.1	-0.21	pKb (Histamine H4 receptor [14]): < 5
N/C(=N\C(=O)CC(c1ccccc1)c1ccccc1)NCCCc1ncc[nH]1	–	–	–	5.07	0.04	5.85	5.47	6.13	-0.33	-0.04	–	–	–	Intrinsic activity (Histamine H4 receptor [10]): -0.08
CN/C(=N/C#N)NCCCCc1nc(N)n[nH]1	< 5	0.31	inactive	–	–	–	–	–	–	–	–	–	–	pEC50 (Histamine H3 receptor [4]): inactive; pEC50 [13]: inactive
N#C/N=C(/NCCCCc1c[nH]cn1)NCCSc1ccccc1	–	–	–	–	7%	–	–	–	–	–	6.14	0.88	-0.52	EC50 (Histamine H4 receptor [3]): 37.2 nM
N#C/N=C(/NCCCCNc1nc(N)n[nH]1)NCCSc1ccccc1	< 5	-0.09	inactive	–	–	–	–	–	–	–	–	–	–	pEC50 (Histamine H3 receptor [4]): inactive; pEC50 [13]: inactive
Cc1nc(CCCN/C(=N\C#N)NCCSc2ccccc2)c[nH]1	< 5	-0.05	–	< 5.3	0.03	–	–	–	–	–	< 5	0.4	-1.11	EC50 (Histamine H4 receptor [3]): 468 nM
CC(CC(=O)/N=C(\N)NCCCc1ccccc1)c1ccccc1 (centres undefined)	–	–	–	5.05	-0.02	< 5	< 5	5.89	-0.19	-0.1	–	–	–	–
N#C/N=C(\NCCCNc1nc(N)n[nH]1)NCCSc1ccccc1	< 5	-0.01	inactive	–	–	–	–	–	–	–	–	–	–	pEC50 (Histamine H3 receptor [4]): inactive; pEC50 [13]: inactive
CN/C(=N/C#N)NCCCCCn1ccnc1C	< 5	-0.07	inactive	< 5	-0.01	–	–	–	–	–	< 5	0.06	-0.26	–
